Reference: patent US9550782B2, “Compounds and methods for treating diabetes” (Medivation Technologies, Inc., priority 2011, dated 2017)
Values joined by “and” are separate entries in the source; they are usually repeats but may differ in a detail not shown here. Equal values may be shown once.

Experiments:
[1] = target: T1, human recombinant adrenergic α2B receptor (Homo sapiens, UniProt P18089); experiment: Radioligand binding, adrenergic α2B ([3H]Rauwolscine); conditions: for inhibition at 0.03 µM: read-out: Percentage inhibition of ligand binding, Adrenergic α2B (0.03 μM), compound at 0.03 μM, repeat datapoints each shown
T1 construct: expressed in transfected cells; host or cells: CHO-K1
T1 sequence (P18089 1-450): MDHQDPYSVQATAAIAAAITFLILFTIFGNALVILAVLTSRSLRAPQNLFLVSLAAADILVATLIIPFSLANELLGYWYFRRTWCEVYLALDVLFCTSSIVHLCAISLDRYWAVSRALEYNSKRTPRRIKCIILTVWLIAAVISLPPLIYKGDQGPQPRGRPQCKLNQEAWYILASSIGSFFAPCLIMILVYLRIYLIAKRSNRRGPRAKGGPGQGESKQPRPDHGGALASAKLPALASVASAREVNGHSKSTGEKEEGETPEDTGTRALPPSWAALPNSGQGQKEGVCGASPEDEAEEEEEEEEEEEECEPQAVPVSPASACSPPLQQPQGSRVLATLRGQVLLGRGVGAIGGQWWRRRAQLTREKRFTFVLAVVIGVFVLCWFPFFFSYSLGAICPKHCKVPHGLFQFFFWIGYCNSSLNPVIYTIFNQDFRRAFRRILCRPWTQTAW
Description: To evaluate in radioligand binding assays the activity of compounds of the invention, human recombinant adrenergic α2B receptor expressed in Chinese hamster ovary (CHO) K1 cells (Uhlen, S. et al, Eur. J. Pharmacol. 343(1):93, 1998) in a modified Tris-HCl buffer (50 mM Tris-HCl, pH 7.4, 12.5 mM MgCl2, 1 mM EDTA, 0.2% BSA) was used. Compounds of the invention were incubated with 2.5 nM [3H]Rauwolscine for 60 min at 25° C. Non-specific binding was estimated in the presence of 10 μM Prazosin. Receptor proteins were filtered and washed, the filters were then counted to determine [3H]Rauwolscine specifically bound. […] Compounds of the invention were tested in this biochemical assay and percent inhibition of specific binding was determined. Biochemical assay results are presented as the percent inhibition of specific binding in Table B1.

[2] = target: T2, human recombinant adrenergic α2A receptor (Homo sapiens, UniProt P08913); experiment: Radioligand binding, adrenergic α2A ([3H]MK-912); conditions: [3H]MK-912; for Percentage inhibition of ligand binding, Adrenergic α2A (0.1 μM) / Percentage inhibition of ligand binding, Adrenergic α2A: compound at 0.1 μM, 0.1 µM; for inhibition at 0.1 µM: read-out: Percentage inhibition of ligand binding, Adrenergic α2A (0.1 μM), compound at 0.1 μM
T2 construct: expressed in transfected cells; host or cells: insect Sf9 cells
T2 sequence (P08913 1-465): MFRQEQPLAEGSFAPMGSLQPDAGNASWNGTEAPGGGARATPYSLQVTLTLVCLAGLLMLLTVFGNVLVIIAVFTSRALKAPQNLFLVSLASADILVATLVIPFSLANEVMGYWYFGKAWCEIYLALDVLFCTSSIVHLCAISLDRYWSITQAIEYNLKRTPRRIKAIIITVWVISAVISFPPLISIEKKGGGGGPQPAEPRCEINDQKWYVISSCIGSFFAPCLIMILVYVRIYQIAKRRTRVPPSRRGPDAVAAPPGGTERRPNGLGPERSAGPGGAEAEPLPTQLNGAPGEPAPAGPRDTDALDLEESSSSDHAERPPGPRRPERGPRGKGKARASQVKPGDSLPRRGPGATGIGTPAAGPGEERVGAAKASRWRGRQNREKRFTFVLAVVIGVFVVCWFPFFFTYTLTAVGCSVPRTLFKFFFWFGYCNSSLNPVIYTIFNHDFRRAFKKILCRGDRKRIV
Description: To evaluate in radioligand binding assays the activity of compounds of the invention, human recombinant adrenergic α2A receptor expressed in insect Sf9 cells (Uhlen, S. et al, J. Pharmacol. Exp. Ther. 271:1558, 1994) in a modified Tris-HCl buffer (50 mM Tris-HCl, pH 7.4, 12.5 mM MgCl2, 2 mM EDTA) was used. Compounds of invention were incubated with 1 nM [^3H]MK-912 for 60 min at 25° C. MK912 is (2S-trans)-1,3,4,5′,6,6′,7,12b-octahydro-1′,3′-dimethyl-spiro[2H-benzofuro[2,3-a]quinolizine-2,4′(1′H)-pyrimidin]-2′(3′H)-one hydrochloride. Non-specific binding was estimated in the presence of 10 μM WB-4101 (2-(2,6-Dimethoxyphenoxyethyl)aminomethyl-1,4-benzodioxane hydrochloride). Receptor proteins were filtered and washed, the filters were then counted to determine [^3H]MK-912 specifically bound. […] Compounds of the invention were tested in this biochemical assay and percent inhibition of specific binding was determined. Biochemical assay results are presented as the percent inhibition of specific binding in Table B1.

[3] = target: T3, rat adrenergic α1B receptor (Rattus norvegicus, UniProt P15823); experiment: Radioligand binding, adrenergic α1B ([3H]Prazosin); parameters: species or system Wistar Rat; conditions: for Percentage inhibition of ligand binding, Adrenergic α1B (0.1 μM): compound at 0.1 μM
T3 construct: rat adrenergic α1B receptor obtained from Wistar Rat liver; from tissue; host or cells: Wistar rat liver
T3 sequence (P15823 1-515): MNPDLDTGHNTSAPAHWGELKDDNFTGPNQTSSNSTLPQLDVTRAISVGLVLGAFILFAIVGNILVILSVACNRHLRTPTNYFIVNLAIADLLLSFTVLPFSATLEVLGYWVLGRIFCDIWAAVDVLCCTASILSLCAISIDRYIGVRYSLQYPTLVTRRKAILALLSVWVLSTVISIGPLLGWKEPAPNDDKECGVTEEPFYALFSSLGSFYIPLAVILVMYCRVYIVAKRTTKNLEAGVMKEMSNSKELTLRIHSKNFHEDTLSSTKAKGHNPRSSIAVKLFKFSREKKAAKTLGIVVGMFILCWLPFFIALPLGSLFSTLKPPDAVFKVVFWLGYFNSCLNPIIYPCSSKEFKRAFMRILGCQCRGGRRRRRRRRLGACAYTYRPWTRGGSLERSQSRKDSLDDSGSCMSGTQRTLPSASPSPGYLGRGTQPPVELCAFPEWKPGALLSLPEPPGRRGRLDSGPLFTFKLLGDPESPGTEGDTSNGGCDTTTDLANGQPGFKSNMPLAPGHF
Description: To evaluate in radioligand binding assays the activity of compounds of the invention, rat adrenergic α1B receptor obtained from Wistar Rat liver (Garcia-S'ainz, J. et al, Biochem. Biophys. Res. Commun. 186:760, 1992; Michel, A. et al, Br. J. Pharmacol. 98:883, 1989) in a modified Tris-HCl buffer (50 mM Tris-HCl buffer, pH 7.4, 0.5 mM EDTA) was used. Compounds of the invention were incubated with 0.25 nM [^3H]Prazosin for 60 min at 25° C. Non-specific binding was estimated in the presence of 10 μM phentolamine. Receptor proteins were filtered and washed, the filters were then counted to determine [^3H]Prazosin specifically bound. […] Compounds of the invention were tested in this biochemical assay and percent inhibition of specific binding was determined. Biochemical assay results are presented as the percent inhibition of specific binding in Table B1.

[4] = compound at 0.03 μM, repeat datapoints each shown, 0.03 µM
[5] = repeat datapoints each shown, 0.1 µM
[6] = compound at 0.03 μM, repeat datapoints each shown

| Compound | Percentage inhibition of ligand binding, Adrenergic α2B (0.03 μM) [1, 4] | Percentage inhibition of ligand binding, Adrenergic α2A (0.1 μM) ([2]; repeat datapoints each shown) | Percentage inhibition of ligand binding, Adrenergic α1B (0.1 μM) [3, 5] | also measured |
| --- | --- | --- | --- | --- |
| Cc1ccc2c(c1)c1c(n2CC(O)c2ccncc2)CC2CCCCN2C1 (racemic) [75a] | 77% | 11% | 61% |  |
| Cc1ccc2c(c1)c1c(n2CC(O)c2ccncc2)CC2CCCCN2C1 (racemic) [75b] | 43% | 5% | 16% |  |
| Cc1ccc2c(c1)c1c(n2CC(O)c2ccncc2)CC2CCCCN2C1 (racemic) [75c] | 11% | −2% | 59% |  |
| Cc1ccc2c(c1)c1c(n2CC(O)c2ccncc2)CC2CCCCN2C1 (racemic) [75d] | 102% | 49% | 26% |  |
| CN1CCc2c(c3cc(Cl)ccc3n2CC(O)c2ccncc2)C1 (single isomer, unassigned) [4a] | 99% and 103% | 19% and 24% | 52% and 57% | Percentage inhibition of ligand binding, Adrenergic α2B (0.1 μM) ([1]; compound at 0.1 μM, repeat datapoints each shown, 0.1 µM): 104%; Percentage inhibition of ligand binding, Adrenergic α2A (0.03 μM) [2, 6]: 5%; Percentage inhibition of ligand binding, Adrenergic α1B (0.03 μM) [3, 6]: 25% |
| CN1CCc2c(c3cc(Cl)ccc3n2CC(O)c2ccncc2)C1 (single isomer, unassigned) [4b] | 46% | 7% | 58% |  |
| CN1CCc2c(c3cc(Cl)ccc3n2CC(O)c2cccnc2)C1 (single isomer, unassigned) [7a] | 59% | 1% | 28% |  |
| CN1CCc2c(c3cc(Cl)ccc3n2CC(O)c2cccnc2)C1 (single isomer, unassigned) [7b] | 74% | 25% | 37% |  |
| Cc1ccc2c(c1)c1c(n2CC(OC(=O)C(N)C(C)C)c2ccncc2)CCN(C)C1 (single isomer, unassigned) [25a] | 54% |  | 4% |  |
| Cc1ccc2c(c1)c1c(n2CC(OC(=O)C(N)C(C)C)c2ccncc2)CCN(C)C1 (single isomer, unassigned) [25b] | 75% |  | 12% |  |
| Cc1ccc2c(c1)c1c(n2CC(OC(=O)C(C)(C)C)c2ccncc2)CCN(C)C1 (single isomer, unassigned) [130a] |  |  |  | Percentage inhibition of ligand binding, Adrenergic α2B ([1]; 0.03 μM compound, 0.03 µM): 100% and 104%; Percentage inhibition of ligand binding, Adrenergic α2B ([1]; 0.1 μM compound): 107%; Percentage inhibition of ligand binding, Adrenergic α1B ([3]; 0.03 μM compound, 0.03 µM): 32%; Percentage inhibition of ligand binding, Adrenergic α1B ([3]; 0.1 μM compound, 0.1 µM): 66% and 68% |
| Cc1ccc(CCn2c3c(c4cc(Cl)cnc42)C2CCCN2CC3)cn1 (single isomer, unassigned) [137a] |  |  |  | Percentage inhibition of ligand binding, Adrenergic α2B ([1]; 0.03 μM compound, 0.03 µM): 104%; Percentage inhibition of ligand binding, Adrenergic α1B ([3]; 0.1 μM compound, 0.1 µM): 94% |
| Cc1cnc2c(c1)c1c(n2CC(N)c2ccc(C#N)cc2)CCN(C)C1 (single isomer, unassigned) [159a] |  |  |  | Percentage inhibition of ligand binding, Adrenergic α2B ([1]; 0.03 μM compound, 0.03 µM): 37%; Percentage inhibition of ligand binding, Adrenergic α1B ([3]; 0.1 μM compound, 0.1 µM): −2% |
| OCCN1CCc2c(c3cc(Cl)ccc3n2CC(O)c2cccnc2)C1 (single isomer, unassigned) [II-94a] |  |  |  | Percentage inhibition of ligand binding, Adrenergic α2B ([1]; compound at 0.03 μM, 0.03 µM): 8%; Percentage inhibition of ligand binding, Adrenergic α2A [2]: 0% |
| Cc1cnc2c(c1)c1c(n2CC(O)c2ccc(C)nc2)CCN(C)C1 (single isomer, unassigned) [II-100a] |  |  |  | Percentage inhibition of ligand binding, Adrenergic α2B ([1]; compound at 0.03 μM, 0.03 µM): 12%; Percentage inhibition of ligand binding, Adrenergic α2A [2]: 7% |
| Cc1ccc2c(c1)c1c(n2CC(O)c2ccc(C#N)cc2)CCN(C)C1 (stereo not drawn) [142a] |  |  |  | Percentage inhibition of ligand binding, Adrenergic α2B ([1]; 0.03 μM compound): 71%; Percentage inhibition of ligand binding, Adrenergic α1B ([3]; 0.1 μM compound): 68% |
| Cc1ccc2c(c1)c1c(n2CC(C)(O)c2ccc(C)nc2)CN(C)CC1 (stereo not drawn) [196b] |  |  |  | Percentage inhibition of ligand binding, Adrenergic α2B ([1]; 0.03 μM compound, 0.03 µM): −2%; Percentage inhibition of ligand binding, Adrenergic α1B ([3]; 0.1 μM compound, 0.1 µM): 37% |
| Cc1ccc2c(c1)c1c(n2CC(O)c2ccncc2)C(C)N2CCC1C2 (stereo not drawn) [compound 38] |  |  |  | inhibition at 0.03 µM [1]: 56%; inhibition at 0.1 µM ([2]; repeat datapoints each shown): -1% |
| CN1CCc2c(n(CC(O)c3ccncc3)c3ccc(Cl)cc23)C1 (stereo not drawn) [compound 41] |  |  |  | inhibition at 0.03 µM [1]: 45%; inhibition at 0.1 µM ([2]; repeat datapoints each shown): 24% |
